# Source: ChEMBL document CHEMBL4130518, “Apratoxin S10, a Dual Inhibitor of Angiogenesis and Cancer Cell Growth To Treat Highly Vascularized Tumors” (ACS Med Chem Lett, 2017)
# Calls of active or inactive are those of the source. The rule behind the calls is not given here.
# Assays:
# [1] = Half life in KCl/HCl buffer at pH 2.32 after 24 hrs by HPLC-MS analysis; type: physicochemical
# HCT-116 = test: Antiproliferative activity against human HCT116 cells after 48 hrs by MTT assay; type: functional, cell-based; settings: HCT-116, 48 h
# A498 [2] = test: Inhibition of IL-6 secretion in human A498 cells at 10 pM to 1 uM after 24 hrs by AlphaLISA based immuno assay; type: functional, cell-based
# HUVEC [3] = test: Antiangiogenic activity in HUVEC assessed as diminishing of branch points at 10 pM after 14 hrs by inverted microscopy; type: functional, cell-based; settings: Homo sapiens
# HUVEC [4] = test: Cytotoxicity against HUVEC assessed as decrease in cell viability after 48 hrs by MTT assay; type: functional, cell-based; settings: Homo sapiens
# Huh-7 [5] = test: Inhibition of VEGF-A secretion in human HuH7 cells at 10 pM to 1 uM after 24 hrs by AlphaLISA based immuno assay; type: functional, cell-based
# HUVEC [6] = test: Antiangiogenic activity in HUVEC assessed as decrease in number of junctions at 10 pM after 14 hrs by branch point counting analysis; type: functional, cell-based; settings: Homo sapiens
# A498 [7] = test: Downregulation of EGFR in human A498 cells at 10 pM to 1 uM after 24 hrs by AlphaLISA based immuno assay; type: functional, cell-based
# Huh-7 [8] = test: Downregulation of FGFR4 in human HuH7 cells at 10 pM to 1 uM after 24 hrs by AlphaLISA based immuno assay; type: functional, cell-based
# HUVEC [9] = test: Antiangiogenic activity in HUVEC assessed as inhibition of tube like structures formation after 14 hrs by matrigel based inverted microscopy; type: functional, cell-based; settings: Homo sapiens
# NCI-H727 [10] = test: Downregulation of IGF1Rbeta in human NCI-H727 cells at 10 pM to 1 uM after 24 hrs by AlphaLISA based immuno assay; type: functional, cell-based
# NCI-H727 [11] = test: Inhibition of VEGF-A secretion in human NCI-H727 cells at 10 pM to 1 uM after 24 hrs by AlphaLISA based immuno assay; type: functional, cell-based
# NCI-H727 [12] = test: Downregulation of VEGFR2 in human NCI-H727 cells at 10 pM to 1 uM after 24 hrs by AlphaLISA based immuno assay; type: functional, cell-based
# HUVEC [13] = test: Downregulation of VEGFR2 expression level in HUVEC at >= 10 nM after 14 hrs by immunoblot analysis; type: functional, cell-based; settings: Homo sapiens
# NCI-H727 [14] = test: Inhibition of IL-6 secretion in human NCI-H727 cells at 10 pM to 1 uM after 24 hrs by AlphaLISA based immuno assay; type: functional, cell-based
# A498 [15] = test: Downregulation of MET in human A498 cells at 10 pM to 1 uM after 24 hrs by AlphaLISA based immuno assay; type: functional, cell-based
# Huh-7 [16] = test: Inhibition of IL-6 secretion in human HuH7 cells at 10 pM to 1 uM after 24 hrs by AlphaLISA based immuno assay; type: functional, cell-based
# A498 [17] = test: Inhibition of VEGF-A secretion in human A498 cells at 10 pM to 1 uM after 24 hrs by AlphaLISA based immuno assay; type: functional, cell-based
# NCI-H727 [18] = test: Antiproliferative activity against human NCI-H727 cells after 48 hrs by MTT assay; type: functional, cell-based; settings: NCI-H727, 48 h
# HUVEC [19] = test: Antiangiogenic activity in HUVEC assessed as inhibition of tube like structures formation at < 100 nM after 14 hrs by matrigel based inverted microscopy; type: functional, cell-based; settings: Homo sapiens
# A498 [20] = test: Antiproliferative activity against human A498 cells after 48 hrs by MTT assay; type: functional, cell-based; settings: A498, 48 h
# Huh-7 [21] = test: Antiproliferative activity against human HuH7 cells after 48 hrs by MTT assay; type: functional, cell-based; settings: Huh-7, 48 h
# HUVEC [22] = test: Antiangiogenic activity in HUVEC assessed as inhibition of tube like structures formation at 100 nM to 1 uM after 14 hrs by matrigel based inverted microscopy; type: functional, cell-based; settings: Homo sapiens
# HUVEC [23] = test: Antiangiogenic activity in HUVEC assessed as inhibition of tube like structures formation at 10 pM to 1 uM after 14 hrs by matrigel based inverted microscopy; type: functional, cell-based; settings: Homo sapiens
structure (smiles),measurement,setting,value
CC[C@H](C)[C@H]1C(=O)N2CCC[C@H]2C(=O)O[C@H](C(C)(C)C)C[C@@H](C)C[C@@H](O)[C@H](C)C2=N[C@@H](CCC(=O)N[C@@H](Cc3ccc(OC)cc3)C(=O)N(C)[C@@H](C)C(=O)N1C)CS2,half-life,[1],> 24 h
CC[C@H](C)[C@H]1C(=O)N2CCC[C@H]2C(=O)O[C@H](C(C)(C)C)C[C@@H](C)C[C@@H](O)C(C)(C)C2=N[C@@H](CCC(=O)N[C@@H](Cc3ccc(OC)cc3)C(=O)N(C)[C@@H](C)C(=O)N1C)CS2,IC50,HCT-116,0.00199 µM
same,half-life,[1],> 24 h
CC[C@H](C)[C@@H]1C(=O)N2CCC[C@@H]2C(=O)O[C@H](C(C)(C)C)C[C@@H](C)C[C@@H](O)C(C)(C)C2=N[C@H](CCC(=O)N[C@@H](Cc3ccc(OC)cc3)C(=O)N(C)[C@@H](C)C(=O)N1C)CS2,inhibition,A498 [2],Active
same,Activity,HUVEC [3],Active
same,Activity,HUVEC [4],Active
same,inhibition,Huh-7 [5],Active
same,Activity,HUVEC [6],Active
same,Activity,A498 [7],Active
same,Activity,Huh-7 [8],Active
same,inhibition,HUVEC [9],Dose-dependent effect
same,Activity,NCI-H727 [10],Active
same,inhibition,NCI-H727 [11],Active
same,Activity,NCI-H727 [12],Active
same,Activity,HUVEC [13],Active
same,inhibition,NCI-H727 [14],Active
same,Activity,A498 [15],Active
same,inhibition,Huh-7 [16],Active
same,inhibition,A498 [17],Active
CC[C@H](C)[C@H]1C(=O)N2CCC[C@H]2C(=O)O[C@H](C(C)(C)C)C[C@@H](C)C[C@@H](O)[C@H](C)C2=N[C@H](CCC(=O)N[C@@H](Cc3ccc(OC)cc3)C(=O)N(C)[C@@H](C)C(=O)N1C)CS2,half-life,[1],> 24 h
CCN(CC)CCNC(=O)c1c(C)[nH]c(/C=C2\C(=O)Nc3ccc(F)cc32)c1C [SUNITINIB],IC50,NCI-H727 [18],10.1 µM
same,inhibition,HUVEC [19],inactive
same,IC50,A498 [20],7.98 µM
same,IC50,Huh-7 [21],4.71 µM
same,inhibition,HUVEC [22],Active
COc1cc2nccc(Oc3ccc(NC(=O)C4(C(=O)Nc5ccc(F)cc5)CC4)cc3)c2cc1OC [CABOZANTINIB],IC50,NCI-H727 [18],14 µM
same,inhibition,HUVEC [23],inactive
same,IC50,A498 [20],8.46 µM
same,IC50,Huh-7 [21],4.35 µM
CC[C@H](C)[C@H]1C(=O)N2CCC[C@H]2C(=O)O[C@H](C(C)(C)C)C[C@@H](C)C[C@@H](O)C(C)(C)C2=N[C@H](CCC(=O)N[C@@H](Cc3ccc(OC)cc3)C(=O)N(C)[C@@H](C)C(=O)N1C)CS2,IC50,NCI-H727 [18],0.00255 µM
same,IC50,HCT-116,0.00147 µM
same,IC50,A498 [20],0.00335 µM
same,half-life,[1],> 24 h
same,IC50,Huh-7 [21],0.00083 µM
C#Cc1cccc(Nc2ncnc3cc(OCCOC)c(OCCOC)cc23)c1 [ERLOTINIB],IC50,NCI-H727 [18],> 6.24 µM
same,inhibition,HUVEC [23],inactive
same,IC50,A498 [20],12.5 µM
same,IC50,Huh-7 [21],25 µM
